Consider 35 compounds from ChEMBL document CHEMBL5729561, “Compounds and uses thereof” (2023).

Some results are limits rather than exact numbers.

The nature of the assay: On day 0 cells were seeded in 30 μL media into each well of 384-well cell culture plates. The seeding density was 8000 cells/well. On day 1, cells were treated with 30 nL DMSO or 30 nL of 3-fold serially DMSO-diluted compounds (10 points in duplicates with 1 μM as final top dose). Subsequently plates were incubated for 6 hours in a standard tissue culture incubator and equilibrated at room temperature for 15 minutes. Nanoluciferase activity was measured by adding 15 μL of freshly prepared Nano-Glo Luciferase Assay Reagent (Promega N1130), shaking the plates for 10 minutes and reading the bioluminescence using an EnVision reader. It counts as cell-based.
In the case of `COc1cc(-c2cn(C)c(=O)c3cnccc23)cc(OC)c1CN(C)CCc1cn(CCOCCOc2ccc3c(c2)C(=O)N(C2CCC(=O)NC2=O)C3=O)nn1` (stereo not given), the IC50 entry is “in the range around 0.055 µM”.
With `COc1cc(-c2cn(C)c(=O)c3cnccc23)cc(OC)c1CN1CC(OCc2cn(-c3ccc4c(c3)C(=O)N(C3CCC(=O)NC3=O)C4=O)nn2)C1` (stereo not given) the entry was “in the range around 0.055 µM”.
For `COc1cc(-c2cn(C)c(=O)c3cnccc23)cc(OC)c1CN1CCC(OCc2cn(CCCOc3ccc4c(c3)C(=O)N(C3CCC(=O)NC3=O)C4=O)nn2)C1` (stereo not given), the IC50 entry was “in the range around 0.55 µM”.
With `COc1cc(-c2cn(C)c(=O)c3cnccc23)cc(OC)c1CN(C)CCc1cn(CCCCCOc2ccc3c(c2)C(=O)N(C2CCC(=O)NC2=O)C3=O)nn1` (stereo not given) the figure was less than 0.01 µM; with `COc1cc(-c2cn(C)c(=O)c3cnccc23)cc(OC)c1CN1CCCC(OCc2cn(CCOc3ccc4c(c3)C(=O)N(C3CCC(=O)NC3=O)C4=O)nn2)C1` (stereo not given), “in the range around 0.055 µM”.
Next, `COc1cc(-c2cn(C)c(=O)c3cnccc23)cc(OC)c1CN1CCCC(OCc2cn(CCCCCOc3ccc4c(c3)C(=O)N(C3CCC(=O)NC3=O)C4=O)nn2)C1` (stereo not given): less than 0.01 µM.
As for `COc1cc(-c2cn(C)c(=O)c3cnccc23)cc(OC)c1CN1CCC(OCc2cn(CCOCCOc3ccc4c(c3)C(=O)N(C3CCC(=O)NC3=O)C4=O)nn2)C1` (stereo not given), the half-inhibitory concentration (IC50) result is “in the range around 0.055 µM”.
Next, `COc1cc(-c2cn(C)c(=O)c3cnccc23)cc(OC)c1CN(C)CC1CC2(CCN(C(=O)CCOCCOc3ccc4c(c3)C(=O)N(C3CCC(=O)NC3=O)C4=O)CC2)O1` (stereo not given): less than 0.01 µM; `COc1cc(-c2cn(C)c(=O)c3cnccc23)cc(OC)c1CN1CCC(OCc2cn(CCCCOc3ccc4c(c3)C(=O)N(C3CCC(=O)NC3=O)C4=O)nn2)C1` (stereo not given): “in the range around 0.055 µM”; `COc1cc(-c2cn(C)c(=O)c3cnccc23)cc(OC)c1CN1CCC(OCc2cn(CCCCOc3ccc4c(c3)C(=O)N(C3CCC(=O)NC3=O)C4=O)nn2)CC1` (stereo not given): “in the range around 0.055 µM”.
For the compound `COc1cc(-c2cn(C)c(=O)c3cnccc23)cc(OC)c1CN(C)Cc1cn(CCOCCOc2ccc3c(c2)C(=O)N(C2CCC(=O)NC2=O)C3=O)nn1` (stereo not given), the IC50 result was “in the range around 0.55 µM”.
Next, `COc1cc(-c2cn(C)c(=O)c3cnccc23)cc(OC)c1CN1CCC(OCc2cn(-c3ccc4c(c3)C(=O)N(C3CCC(=O)NC3=O)C4=O)nn2)C1` (stereo not given): “in the range around 0.055 µM”.
With `COc1cc(-c2cn(C)c(=O)c3cnccc23)cc(OC)c1CN1CC(OCc2cn(CCOCCOc3ccc4c(c3)C(=O)N(C3CCC(=O)NC3=O)C4=O)nn2)C1` (stereo not given) the entry was “in the range around 0.55 µM”.
Take `COc1cc(-c2cn(C)c(=O)c3cnccc23)cc(OC)c1CN(C)C1CC2CN(C(=O)CCOCCOc3cccc4c3C(=O)N(C3CCC(=O)NC3=O)C4=O)CC2C1` (stereo not given): the IC50 entry was “in the range around 0.055 µM”.
As for `COc1cc(-c2cn(C)c(=O)c3cnccc23)cc(OC)c1CN1CCCC(OCc2cn(-c3ccc4c(c3)C(=O)N(C3CCC(=O)NC3=O)C4=O)nn2)C1` (stereo not given), the concentration for half-maximal inhibition (IC50) entry was “in the range around 0.55 µM”.
Next, `COc1cc(-c2cn(C)c(=O)c3cnccc23)cc(OC)c1CN(C)CC1CC2(CCN(C(=O)CCOCCOc3cccc4c3C(=O)N(C3CCC(=O)NC3=O)C4=O)CC2)O1` (stereo not given): “in the range around 0.055 µM”; `COc1cc(-c2cn(C)c(=O)c3cnccc23)cc(OC)c1CN1CCC(OCc2cn(CCOCCOc3ccc4c(c3)C(=O)N(C3CCC(=O)NC3=O)C4=O)nn2)CC1` (stereo not given): “in the range around 0.055 µM”.
Consider `COc1cc(-c2cn(C)c(=O)c3cnccc23)cc(OC)c1CN1CC(OCc2cn(CCCCCOc3ccc4c(c3)C(=O)N(C3CCC(=O)NC3=O)C4=O)nn2)C1` (stereo not given), for which the IC50 entry was “in the range around 0.055 µM”.
In the case of `COc1cc(-c2cn(C)c(=O)c3cnccc23)cc(OC)c1CN(C)CC1CC2(C1)CN(C(=O)CCOCCOc1cccc3c1C(=O)N(C1CCC(=O)NC1=O)C3=O)C2` (stereo not given), the IC50 entry is “in the range around 0.055 µM”.
Next, `COc1cc(-c2cn(C)c(=O)c3cnccc23)cc(OC)c1CN1CCC(OCc2cn(CCCCCOc3ccc4c(c3)C(=O)N(C3CCC(=O)NC3=O)C4=O)nn2)CC1` (stereo not given): less than 0.01 µM.
As for `COc1cc(-c2cn(C)c(=O)c3cnccc23)cc(OC)c1CN(C)CCc1cn(-c2ccc3c(c2)C(=O)N(C2CCC(=O)NC2=O)C3=O)nn1` (stereo not given), the IC50 result was “in the range around 0.055 µM”.
With `COc1cc(-c2cn(C)c(=O)c3cnccc23)cc(OC)c1CN1CCC(OCc2cn(CCOc3ccc4c(c3)C(=O)N(C3CCC(=O)NC3=O)C4=O)nn2)C1` (stereo not given) the entry was “in the range around 0.055 µM”; with `COc1cc(-c2cn(C)c(=O)c3cnccc23)cc(OC)c1CN1CC(OCc2cn(CCCCOc3ccc4c(c3)C(=O)N(C3CCC(=O)NC3=O)C4=O)nn2)C1` (stereo not given), “in the range around 0.055 µM”; with `COc1cc(-c2cn(C)c(=O)c3cnccc23)cc(OC)c1CN1CCC(OCc2cn(-c3ccc4c(c3)C(=O)N(C3CCC(=O)NC3=O)C4=O)nn2)CC1` (stereo not given), “in the range around 0.055 µM”.
Next, `COc1cc(-c2cn(C)c(=O)c3cnccc23)cc(OC)c1CN(C)C1CC2CC1CN2C(=O)CCOCCOc1cccc2c1C(=O)N(C1CCC(=O)NC1=O)C2=O` (stereo not given): “in the range around 0.055 µM”.
With `COc1cc(-c2cn(C)c(=O)c3cnccc23)cc(OC)c1CN1CCC(OCc2cn(CCOCc3ccc4c(c3)C(=O)N(C3CCC(=O)NC3=O)C4=O)nn2)CC1` (stereo not given) the entry was “in the range around 0.055 µM”.
As for `COc1cc(-c2cn(C)c(=O)c3cnccc23)cc(OC)c1CN1CCCC(OCc2cn(CCOCCOc3ccc4c(c3)C(=O)N(C3CCC(=O)NC3=O)C4=O)nn2)C1` (stereo not given), the IC50 result was “in the range around 0.055 µM”.
With `COc1cc(-c2cn(C)c(=O)c3cnccc23)cc(OC)c1CN(C)Cc1cn(CCCCCOc2ccc3c(c2)C(=O)N(C2CCC(=O)NC2=O)C3=O)nn1` (stereo not given) the entry was “in the range around 0.055 µM”.
With `COc1cc(-c2cn(C)c(=O)c3cnccc23)cc(OC)c1CN1CCCC(OCc2cn(CCCOc3ccc4c(c3)C(=O)N(C3CCC(=O)NC3=O)C4=O)nn2)C1` (stereo not given) the entry was “in the range around 0.055 µM”.
Next, `COc1cc(-c2cn(C)c(=O)c3cnccc23)cc(OC)c1CN(C)CC1CC12CCN(C(=O)CCOCCOc1cccc3c1C(=O)N(C1CCC(=O)NC1=O)C3=O)CC2` (stereo not given): “in the range around 0.055 µM”.
Regarding `COc1cc(-c2cn(C)c(=O)c3cnccc23)cc(OC)c1CN1CCC(OCc2cn(CCOc3ccc4c(c3)C(=O)N(C3CCC(=O)NC3=O)C4=O)nn2)CC1` (stereo not given), the IC50 result was “in the range around 0.055 µM”.
Next, `COc1cc(-c2cn(C)c(=O)c3cnccc23)cc(OC)c1CN1CC(OCc2cn(CCCOc3ccc4c(c3)C(=O)N(C3CCC(=O)NC3=O)C4=O)nn2)C1` (stereo not given): “in the range around 0.55 µM”; `COc1cc(-c2cn(C)c(=O)c3cnccc23)cc(OC)c1CN(C)CC1CC2(CCN(C(=O)CCOCCOc3cccc4c3C(=O)N(C3CCC(=O)NC3=O)C4=O)CC2)C1` (stereo not given): “in the range around 0.055 µM”.
With `COc1cc(-c2cn(C)c(=O)c3cnccc23)cc(OC)c1CN1CCC(OCc2cn(CCCCCOc3ccc4c(c3)C(=O)N(C3CCC(=O)NC3=O)C4=O)nn2)C1` (stereo not given) the figure was less than 0.01 µM; with `COc1cc(-c2cn(C)c(=O)c3cnccc23)cc(OC)c1CN(C)C1CCC2CN(C(=O)CCOCCOc3cccc4c3C(=O)N(C3CCC(=O)NC3=O)C4=O)CC21` (stereo not given), “in the range around 0.055 µM”.

A word on the IC50: it is the concentration that inhibits the measured activity by half. Low values mean inhibition by little substance, high ones a need for much substance.
